In ChEMBL document CHEMBL3286339, “Synthesis and in vivo SAR study of indolin-2-one-based multi-targeted inhibitors as potential anticancer agents” (Eur J Med Chem, 2014):
The source made the active and inactive calls. The calls are words filed in the database; no cut-off is given here.

Assays:
[1] = biological target: T1, Proto-oncogene tyrosine-protein kinase receptor Ret (Homo sapiens, UniProt P07949); details: 1 uM
Description: Inhibition of RET (unknown origin) at 1 uM relative to control

Mus musculus = assay: Toxicity in BALB/c nude mouse xenografted with human HT-29 cells assessed as bloody stool at 80 mg/kg/day administered qd measured up to day 21; format: organism-based; details: in vivo
Aorta [2] = assay: Inhibition of micrangium generation in Sprague-Dawley rat aortic ring at 0.2 ug/ml after 6 days by inverted microscopic analysis; format: functional, tissue-based
[3] = biological target: Mast/stem cell growth factor receptor Kit (Homo sapiens, UniProt P10721); assay: Binding affinity to c-KIT (unknown origin)
Sequence of Mast/stem cell growth factor receptor Kit (P10721 whole entry): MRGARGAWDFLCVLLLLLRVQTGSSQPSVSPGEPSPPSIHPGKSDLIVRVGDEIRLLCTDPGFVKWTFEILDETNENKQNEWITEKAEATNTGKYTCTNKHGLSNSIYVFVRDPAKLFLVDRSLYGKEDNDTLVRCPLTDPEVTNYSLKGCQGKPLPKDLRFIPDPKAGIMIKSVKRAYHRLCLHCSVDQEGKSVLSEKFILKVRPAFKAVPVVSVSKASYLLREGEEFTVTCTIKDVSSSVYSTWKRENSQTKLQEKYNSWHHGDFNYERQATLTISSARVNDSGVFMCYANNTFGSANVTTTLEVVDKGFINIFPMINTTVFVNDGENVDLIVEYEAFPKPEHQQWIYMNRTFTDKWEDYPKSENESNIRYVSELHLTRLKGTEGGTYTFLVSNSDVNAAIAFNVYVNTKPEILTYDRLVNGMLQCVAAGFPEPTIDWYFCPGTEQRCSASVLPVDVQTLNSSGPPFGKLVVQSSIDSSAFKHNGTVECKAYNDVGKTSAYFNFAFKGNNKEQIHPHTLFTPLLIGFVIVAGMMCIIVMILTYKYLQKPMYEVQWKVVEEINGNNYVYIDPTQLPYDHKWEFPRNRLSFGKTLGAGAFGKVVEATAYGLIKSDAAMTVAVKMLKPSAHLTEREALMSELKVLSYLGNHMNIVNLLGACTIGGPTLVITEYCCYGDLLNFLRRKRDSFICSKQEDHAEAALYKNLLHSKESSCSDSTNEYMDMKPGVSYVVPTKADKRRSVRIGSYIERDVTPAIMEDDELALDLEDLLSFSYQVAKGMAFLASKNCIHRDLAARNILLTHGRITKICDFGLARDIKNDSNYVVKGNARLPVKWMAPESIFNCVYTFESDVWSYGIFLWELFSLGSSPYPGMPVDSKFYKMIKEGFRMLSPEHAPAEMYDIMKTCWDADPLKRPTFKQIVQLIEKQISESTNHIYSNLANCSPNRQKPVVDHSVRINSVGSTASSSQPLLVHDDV

[4] = biological target: Tyrosine-protein kinase Lck (Homo sapiens, UniProt P06239); assay: Binding affinity to LCK (unknown origin)
NCI-H460 = assay: Antiproliferative activity against human NCI-H460 cells after 72 hrs by MTT assay; format: functional, cell-based; details: NCI-H460, 72 h
[5] = biological target: Tyrosine-protein kinase ABL2 (Homo sapiens, UniProt P42684); assay: Inhibition of ARG (unknown origin) at 1 uM relative to control
Sequence of Tyrosine-protein kinase ABL2 (P42684 whole entry): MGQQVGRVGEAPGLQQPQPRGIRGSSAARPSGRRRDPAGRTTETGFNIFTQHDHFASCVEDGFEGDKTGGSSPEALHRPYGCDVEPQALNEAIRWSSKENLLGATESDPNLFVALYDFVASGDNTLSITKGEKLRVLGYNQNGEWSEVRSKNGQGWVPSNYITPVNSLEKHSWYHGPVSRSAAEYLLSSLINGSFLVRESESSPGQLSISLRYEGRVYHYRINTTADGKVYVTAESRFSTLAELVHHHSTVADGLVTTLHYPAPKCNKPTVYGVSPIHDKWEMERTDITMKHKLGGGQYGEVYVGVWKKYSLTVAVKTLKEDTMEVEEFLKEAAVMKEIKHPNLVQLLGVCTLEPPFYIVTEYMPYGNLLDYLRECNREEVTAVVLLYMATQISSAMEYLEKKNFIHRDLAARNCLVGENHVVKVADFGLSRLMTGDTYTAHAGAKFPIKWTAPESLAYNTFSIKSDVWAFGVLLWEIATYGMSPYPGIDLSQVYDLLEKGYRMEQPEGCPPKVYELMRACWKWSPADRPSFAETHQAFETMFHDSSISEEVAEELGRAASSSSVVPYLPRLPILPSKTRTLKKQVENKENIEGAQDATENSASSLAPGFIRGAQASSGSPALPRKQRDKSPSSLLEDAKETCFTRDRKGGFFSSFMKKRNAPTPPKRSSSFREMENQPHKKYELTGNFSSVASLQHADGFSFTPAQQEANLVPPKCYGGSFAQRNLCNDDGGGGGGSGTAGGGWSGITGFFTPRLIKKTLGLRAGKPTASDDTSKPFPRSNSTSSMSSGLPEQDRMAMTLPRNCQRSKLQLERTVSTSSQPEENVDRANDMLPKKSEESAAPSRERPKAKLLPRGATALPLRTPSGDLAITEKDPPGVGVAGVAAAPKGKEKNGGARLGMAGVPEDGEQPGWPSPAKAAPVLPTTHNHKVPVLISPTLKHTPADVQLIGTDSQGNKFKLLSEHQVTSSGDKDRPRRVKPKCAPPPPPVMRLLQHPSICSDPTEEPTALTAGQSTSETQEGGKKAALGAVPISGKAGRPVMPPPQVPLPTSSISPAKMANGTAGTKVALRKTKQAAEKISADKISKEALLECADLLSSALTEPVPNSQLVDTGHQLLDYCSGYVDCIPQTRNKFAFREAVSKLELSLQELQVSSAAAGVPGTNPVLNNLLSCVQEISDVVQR

[6] = biological target: Macrophage colony-stimulating factor 1 receptor (Homo sapiens, UniProt P07333); assay: Inhibition of FMS (unknown origin) at 1 uM relative to control
Aorta [7] = assay: Antiangiogenic activity in Sprague-Dawley rat aortic ring at 0.2 ug/ml after 6 days by inverted microscopic analysis; format: functional, tissue-based
[8] = biological target: Fibroblast growth factor receptor 1 (Homo sapiens, UniProt P11362); assay: Inhibition of FGFR1 (unknown origin) at 1 uM relative to control
Sequence of Fibroblast growth factor receptor 1 (P11362 22-822 limits assumed): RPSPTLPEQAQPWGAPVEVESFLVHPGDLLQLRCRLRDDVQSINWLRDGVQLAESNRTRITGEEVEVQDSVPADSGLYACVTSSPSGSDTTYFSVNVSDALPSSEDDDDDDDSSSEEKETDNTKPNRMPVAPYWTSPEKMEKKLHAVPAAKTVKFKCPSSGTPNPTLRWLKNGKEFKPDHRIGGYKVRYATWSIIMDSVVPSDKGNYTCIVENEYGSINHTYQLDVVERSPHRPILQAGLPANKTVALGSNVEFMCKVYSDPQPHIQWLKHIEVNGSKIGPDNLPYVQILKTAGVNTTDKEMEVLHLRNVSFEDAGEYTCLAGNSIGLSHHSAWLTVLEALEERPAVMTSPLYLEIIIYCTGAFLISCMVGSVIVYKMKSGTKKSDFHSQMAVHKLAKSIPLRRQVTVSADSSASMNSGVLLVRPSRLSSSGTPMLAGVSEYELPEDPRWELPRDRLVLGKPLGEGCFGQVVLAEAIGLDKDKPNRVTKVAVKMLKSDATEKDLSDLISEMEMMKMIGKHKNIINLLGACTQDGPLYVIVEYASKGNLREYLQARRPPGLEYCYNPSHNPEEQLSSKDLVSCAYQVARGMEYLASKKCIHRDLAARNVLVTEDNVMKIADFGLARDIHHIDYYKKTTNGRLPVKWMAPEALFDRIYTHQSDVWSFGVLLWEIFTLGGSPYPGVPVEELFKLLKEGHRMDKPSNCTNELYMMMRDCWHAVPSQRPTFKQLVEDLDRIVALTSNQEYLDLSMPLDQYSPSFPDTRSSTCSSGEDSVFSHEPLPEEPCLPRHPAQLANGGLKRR

NCI-H526 = assay: Antiproliferative activity against human NCI-H526 cells after 72 hrs by MTT assay; format: functional, cell-based; details: NCI-H526, 72 h
[9] = biological target: Tyrosine-protein kinase Fyn (Homo sapiens, UniProt P06241); assay: Binding affinity to FYN (unknown origin)
Sequence of Tyrosine-protein kinase Fyn (P06241 whole entry): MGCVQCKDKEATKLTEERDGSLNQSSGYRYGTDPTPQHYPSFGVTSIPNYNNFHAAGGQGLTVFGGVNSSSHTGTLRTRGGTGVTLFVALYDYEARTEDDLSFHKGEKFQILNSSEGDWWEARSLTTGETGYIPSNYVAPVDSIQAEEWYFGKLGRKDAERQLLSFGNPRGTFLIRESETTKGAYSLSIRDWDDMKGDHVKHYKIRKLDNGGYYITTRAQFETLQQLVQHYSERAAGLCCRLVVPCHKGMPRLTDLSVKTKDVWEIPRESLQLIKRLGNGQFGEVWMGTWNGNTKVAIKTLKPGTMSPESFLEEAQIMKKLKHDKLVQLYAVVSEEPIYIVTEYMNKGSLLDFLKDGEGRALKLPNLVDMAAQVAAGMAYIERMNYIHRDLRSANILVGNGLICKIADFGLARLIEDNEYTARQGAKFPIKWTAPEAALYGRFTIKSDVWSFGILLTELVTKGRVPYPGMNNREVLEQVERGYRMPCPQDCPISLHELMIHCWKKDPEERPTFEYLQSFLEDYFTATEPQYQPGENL

[10] = Antiproliferative activity against human MV411 cells after 48 hrs by MTT assay; format: functional, cell-based; details: MV4-11, 48 h
[11] = biological target: T1, Proto-oncogene tyrosine-protein kinase receptor Ret; assay: Binding affinity to RET (unknown origin)
[12] = Solubility of the compound in water; format: physicochemical; details: buffer

T1 sequence (P07949 whole entry): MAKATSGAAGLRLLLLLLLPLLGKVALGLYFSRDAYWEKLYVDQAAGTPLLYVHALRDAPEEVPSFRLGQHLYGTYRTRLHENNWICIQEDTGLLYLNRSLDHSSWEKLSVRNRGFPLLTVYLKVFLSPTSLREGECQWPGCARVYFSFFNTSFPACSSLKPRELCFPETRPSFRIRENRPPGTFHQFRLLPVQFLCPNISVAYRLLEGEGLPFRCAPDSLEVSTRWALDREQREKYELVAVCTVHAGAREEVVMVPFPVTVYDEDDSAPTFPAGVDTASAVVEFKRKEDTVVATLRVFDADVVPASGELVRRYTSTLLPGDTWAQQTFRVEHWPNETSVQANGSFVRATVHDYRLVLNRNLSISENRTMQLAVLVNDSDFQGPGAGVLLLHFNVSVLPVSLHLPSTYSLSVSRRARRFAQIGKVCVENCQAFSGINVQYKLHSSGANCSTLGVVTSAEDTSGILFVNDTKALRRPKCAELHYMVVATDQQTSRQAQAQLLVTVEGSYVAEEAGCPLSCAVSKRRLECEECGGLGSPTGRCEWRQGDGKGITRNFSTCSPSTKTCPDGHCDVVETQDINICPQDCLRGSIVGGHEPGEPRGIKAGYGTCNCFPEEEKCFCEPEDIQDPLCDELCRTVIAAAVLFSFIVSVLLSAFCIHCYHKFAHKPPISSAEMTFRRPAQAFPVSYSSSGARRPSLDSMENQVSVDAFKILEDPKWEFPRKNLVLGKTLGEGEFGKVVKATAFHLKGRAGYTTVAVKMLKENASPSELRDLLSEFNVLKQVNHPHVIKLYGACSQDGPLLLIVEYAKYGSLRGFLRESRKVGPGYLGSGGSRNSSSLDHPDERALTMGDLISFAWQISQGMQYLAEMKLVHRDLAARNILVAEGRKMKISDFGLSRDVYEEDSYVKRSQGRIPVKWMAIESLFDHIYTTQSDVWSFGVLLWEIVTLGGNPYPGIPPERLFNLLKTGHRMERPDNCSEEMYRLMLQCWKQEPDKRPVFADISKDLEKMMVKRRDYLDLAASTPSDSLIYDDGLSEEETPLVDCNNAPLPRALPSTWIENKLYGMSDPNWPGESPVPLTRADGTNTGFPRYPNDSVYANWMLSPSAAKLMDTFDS

inhibition [1]: 99%
Ki [3]: 200 nM
Ki [4]: 2000 nM
IC50 (NCI-H460): 6110 nM
inhibition [5]: 76%
inhibition [6]: 84%
inhibition [8]: 71%
IC50 (NCI-H526): 20600 nM
Ki [9]: 1800 nM
Ki [11]: 18 nM
solubility [12]: soluble
SMILES: Cc1[nH]c(/C=C2\C(=O)Nc3ccc(F)cc32)c(C)c1NC(=O)CCN1CCN(C)CC1
Activity (Mus musculus): Non-toxic
inhibition (Aorta [2]): Active
inhibition (Aorta [7]): Active
IC50 [10]: 8 nM
